This is an account of results in PubChem BioAssay AID256 (DTP/NCI, 2004).

This experiment relates to CD2F1 mice, L1210 leukemia ip, survival T/C. As to the kind of experiment: NCI In Vivo Anticancer Drug Screen. Data for tumor model L1210 Leukemia (intraperitoneal) in CD2F1 (CDF1) mice. To be noted: higher = longer survival. The procedure, abridged:
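Tumor-bearing mice (transplanted tumor) were split into treated and vehicle control groups, and the measured endpoint of each treated group was divided by that of its vehicle controls.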

Where [1] appears, read: endpoint: mean survival time, dose: 50.0 mg/kg/injection, schedule: Q01DX009 (ip), vehicle: saline with Tween-80.
[2] abbreviates: endpoint: mean survival time, dose: 75.0 mg/kg/injection, schedule: Q01DX001 (ip), vehicle: saline.
[3] abbreviates: endpoint: mean survival time, dose: 100.0 mg/kg/injection, schedule: Q01DX009 (ip), vehicle: saline with Tween-80.
The mark [4] stands for this setting: endpoint: mean survival time, dose: 150.0 mg/kg/injection, schedule: Q01DX001 (ip), vehicle: saline.
Where [5] appears, read: endpoint: mean survival time, dose: 200.0 mg/kg/injection, schedule: Q01DX009 (ip), vehicle: saline with Tween-80.
Setting [6] is: endpoint: mean survival time, dose: 100.0 mg/kg/injection, schedule: Q04DX002 (ip), vehicle: saline.
The mark [7] stands for this setting: endpoint: mean survival time, dose: 200.0 mg/kg/injection, schedule: Q04DX002 (ip), vehicle: saline.
The mark [8] stands for this setting: endpoint: mean survival time, dose: 400.0 mg/kg/injection, schedule: Q01DX009 (ip), vehicle: saline with Tween-80.
Setting [9] is: endpoint: mean survival time, dose: 100.0 mg/kg/injection, schedule: Q04DX003 (ip), vehicle: saline.
Setting [10] is: endpoint: mean survival time, dose: 200.0 mg/kg/injection, schedule: Q04DX003 (ip), vehicle: saline.
The mark [11] stands for this setting: endpoint: mean survival time, dose: 100.0 mg/kg/injection, schedule: Q04DX003 (ip), vehicle: saline with Tween-80.
[12] abbreviates: endpoint: mean survival time, dose: 100.0 mg/kg/injection, schedule: Q01DX001 (ip), vehicle: saline with Tween-80.
Setting [13] is: endpoint: mean survival time, dose: 200.0 mg/kg/injection, schedule: Q01DX001 (ip), vehicle: saline with Tween-80.
The mark [14] stands for this setting: endpoint: mean survival time, dose: 200.0 mg/kg/injection, schedule: Q04DX003 (ip), vehicle: saline with Tween-80.

Structures are written as SMILES. “And” between values parts separate entries of the source, which are not always exact repeats. Identical values can stand only once. Toxic doses and inconclusive results are not listed.

As to `CCCCCCCCCCCCCCCC(=O)NCCNC(=O)CCCCCCCCCCCCCCC`, the T/C runs as follows: under setting [1], 92 % of control; under setting [2], 98 % of control; under setting [3], 90 % of control; under setting [4], 93 % of control; under setting [5], 94 % of control; (endpoint: mean survival time, dose: 300.0 mg/kg/injection, schedule: Q01DX001 (ip), vehicle: saline) 98 % of control.

With `CSc1ncc(Br)c(Sc2nc(N)nc3nc[nH]c23)n1`, the T/C reads like this: (endpoint: mean survival time, dose: 2.2 mg/kg/injection, schedule: Q01DX001 (ip), vehicle: saline with Tween-80) 123 % of control; (endpoint: mean survival time, dose: 3.0 mg/kg/injection, schedule: Q01DX001 (ip), vehicle: saline with Tween-80) 117 % of control; (endpoint: mean survival time, dose: 3.4 mg/kg/injection, schedule: Q01DX001 (ip), vehicle: saline with Tween-80) 123 % of control; (endpoint: mean survival time, dose: 4.4 mg/kg/injection, schedule: Q01DX001 (ip), vehicle: saline with Tween-80) 122 % of control.

`CCOC(=O)C(=C=[N-])[n+]1ccc(C)cc1`: the T/C is, setting by setting: (endpoint: mean survival time, dose: 6.25 mg/kg/injection, schedule: Q01DX001 (ip), vehicle: saline sonified) 101 % of control; (endpoint: mean survival time, dose: 6.25 mg/kg/injection, schedule: Q01DX009 (ip), vehicle: saline sonified) 94 % of control; (endpoint: mean survival time, dose: 12.5 mg/kg/injection, schedule: Q01DX001 (ip), vehicle: saline sonified) 103 % of control; (endpoint: mean survival time, dose: 12.5 mg/kg/injection, schedule: Q01DX009 (ip), vehicle: saline sonified) 94 % of control; (endpoint: mean survival time, dose: 25.0 mg/kg/injection, schedule: Q01DX001 (ip), vehicle: saline sonified) 103 % of control; (endpoint: mean survival time, dose: 25.0 mg/kg/injection, schedule: Q01DX009 (ip), vehicle: saline sonified) 89 % of control.

As to `CC(=N)N(C)CC(=O)O`, the T/C is 103 % of control under setting [6]; 103 % of control under setting [7]; 100 % of control (endpoint: mean survival time, dose: 400.0 mg/kg/injection, schedule: Q04DX002 (ip), vehicle: saline).

With `COC1OC(CN2C(=O)c3ccccc3C2=O)C2OC(C)(C)OC12` (configuration not stated), the T/C is 98 % of control under setting [3], 94 % of control under setting [5] and 98 % of control under setting [8].

For `O=c1cccc[nH]1` (tested in a mixture with another compound), the T/C by setting is: under setting [1], 108 % of control; under setting [9], 97 % of control; under setting [10], 97 % of control.

For `O=c1[nH]cc(Br)cc1[N+](=O)[O-]`, the T/C runs as follows: (endpoint: mean survival time, dose: 100.0 mg/kg/injection, schedule: Q04DX002 (ip), vehicle: saline with Tween-80) 101 % of control; (endpoint: mean survival time, dose: 200.0 mg/kg/injection, schedule: Q04DX002 (ip), vehicle: saline with Tween-80) 112 % of control; (endpoint: mean survival time, dose: 400.0 mg/kg/injection, schedule: Q04DX002 (ip), vehicle: saline with Tween-80) 108 % of control.

Turning to `CCOC(=O)C#CC1CCCCC1`, the T/C reads like this: under setting [1], 98 % of control; under setting [3], 98 % of control; under setting [5], 102 % of control.

`COC(=O)Nc1cccc(OS(=O)(=O)N(C)C)c1`: the T/C under setting [11] is 103 % of control.

As to `Brc1ccc(OCC(COc2ccc(Br)cc2)(COc2ccc(Br)cc2)COc2ccc(Br)cc2)cc1`, the T/C is 100 % of control (endpoint: mean survival time, dose: 100.0 mg/kg/injection, schedule: Q01DX001 (ip), vehicle: Klucel (hydroxypropylcellulose) (HPC)); 103 % of control (endpoint: mean survival time, dose: 200.0 mg/kg/injection, schedule: Q01DX001 (ip), vehicle: Klucel (hydroxypropylcellulose) (HPC)); 91 % of control (endpoint: mean survival time, dose: 400.0 mg/kg/injection, schedule: Q01DX001 (ip), vehicle: Klucel (hydroxypropylcellulose) (HPC)).

Consider `CC1(C)COC(Cc2ccccc2Br)=N1`, for which the T/C runs as follows: under setting [9], 101 % of control; under setting [10], 93 % of control; (endpoint: mean survival time, dose: 400.0 mg/kg/injection, schedule: Q04DX003 (ip), vehicle: saline) 93 % of control.

In the case of `CC(C)CCCCCOC(=O)Nc1cccc2ccccc12`, the T/C runs as follows: under setting [12], 92 % of control; under setting [13], 89 % of control; (endpoint: mean survival time, dose: 400.0 mg/kg/injection, schedule: Q01DX001 (ip), vehicle: saline with Tween-80) 92 % of control.

With `O=C(NCCc1ccccc1)c1ccccc1`, the T/C under setting [3] was 101 % of control, the T/C under setting [5] was 107 % of control and the T/C under setting [8] is 97 % of control.

As to `COc1cc(/C=C2\C(=O)NC(=O)N(c3ccccc3)C2=O)cc(OC)c1OC`, the T/C under setting [11] was 100 % of control and the T/C under setting [14] is 100 % of control.

For `CCC[P+](c1ccccc1)(c1ccccc1)c1ccccc1`, the T/C reads like this: (endpoint: mean survival time, dose: 3.13 mg/kg/injection, schedule: Q01DX009 (ip), vehicle: saline) 106 % of control; (endpoint: mean survival time, dose: 6.25 mg/kg/injection, schedule: Q01DX009 (ip), vehicle: saline) 113 % of control; (endpoint: mean survival time, dose: 12.5 mg/kg/injection, schedule: Q01DX009 (ip), vehicle: saline) 120 % of control; (endpoint: mean survival time, dose: 25.0 mg/kg/injection, schedule: Q01DX009 (ip), vehicle: saline) 117 % of control; (endpoint: mean survival time, dose: 75.0 mg/kg/injection, schedule: Q01DX001 (ip), vehicle: other) 93 % of control.

On to `CN(C)c1ccc(C=C(Cl)Cl)cc1`, for which the T/C (endpoint: mean survival time, dose: 100.0 mg/kg/injection, schedule: Q04DX002 (ip), vehicle: other) is 87 % of control; the T/C (endpoint: mean survival time, dose: 200.0 mg/kg/injection, schedule: Q04DX002 (ip), vehicle: other) was 91 % of control; the T/C (endpoint: mean survival time, dose: 400.0 mg/kg/injection, schedule: Q04DX002 (ip), vehicle: other) was 93 % of control.

For `C[N+](C)(C)CCC(=O)c1ccc(C(=O)CC[N+](C)(C)C)cc1`, the T/C runs as follows: (endpoint: mean survival time, dose: 50.0 mg/kg/injection, schedule: Q04DX002 (ip), vehicle: saline) 96 % of control; under setting [12], 100 % of control; under setting [6], 96 % of control; under setting [13], 94 % of control; under setting [7], 96 % of control.

In the case of `CCC1(O)C(=O)OCc2c1cc1n(c2=O)Cc2cc3cc4c(cc3nc2-1)OCO4` (configuration not stated), the T/C was 192 % of control (endpoint: median survival time, dose: 1.0 mg/kg/injection, schedule: Q01DX005 (ip), vehicle: saline with Tween-80); 114 % of control (endpoint: median survival time, dose: 2.0 mg/kg/injection, schedule: Q01DX005 (ip), vehicle: saline with Tween-80); 325 % of control (endpoint: median survival time, dose: 2.0 mg/kg/injection, schedule: Q04DX002 (ip), vehicle: saline with Tween-80); 101 % of control (endpoint: median survival time, dose: 4.0 mg/kg/injection, schedule: Q01DX005 (ip), vehicle: saline with Tween-80); 190 % of control and 228 % of control (endpoint: median survival time, dose: 4.0 mg/kg/injection, schedule: Q04DX002 (ip), vehicle: saline with Tween-80); 115 % of control and 124 % of control (endpoint: median survival time, dose: 16.0 mg/kg/injection, schedule: Q04DX002 (ip), vehicle: saline with Tween-80). In addition, the T/C (endpoint: median survival time, dose: 32.0 mg/kg/injection, schedule: Q04DX002 (ip), vehicle: saline with Tween-80) was 97 % of control.

Regarding `O/N=C(/c1ccccc1)c1ccc(O)cc1`, the T/C runs as follows: (endpoint: median survival time, dose: 25.0 mg/kg/injection, schedule: Q01DX001 (ip), vehicle: saline with Tween-80) 104 % of control; (endpoint: median survival time, dose: 50.0 mg/kg/injection, schedule: Q01DX001 (ip), vehicle: saline with Tween-80) 101 % of control; (endpoint: median survival time, dose: 100.0 mg/kg/injection, schedule: Q01DX001 (ip), vehicle: saline with Tween-80) 98 % of control; (endpoint: median survival time, dose: 200.0 mg/kg/injection, schedule: Q01DX001 (ip), vehicle: saline with Tween-80) 104 % of control; (endpoint: median survival time, dose: 400.0 mg/kg/injection, schedule: Q01DX001 (ip), vehicle: saline with Tween-80) 101 % of control.

As for `OC1C2CCC(C2)C1C(O)(C(F)(F)Cl)C(F)(F)Cl` (configuration not stated), the T/C was 97 % of control under setting [3], 91 % of control under setting [5] and 87 % of control under setting [8].

Consider `COc1cc2c(C(=O)O)cc(-c3ccc(Cl)cc3)nc2cc1Cl`, for which the T/C (endpoint: mean survival time, dose: 100.0 mg/kg/injection, schedule: Q01DX001 (ip), vehicle: saline) is 98 % of control.

As to `OCCCl`, the T/C was 104 % of control under setting [2] and 103 % of control under setting [4].

Take `C=C1C(=O)OC2CC3(C)OC3CC/C(C)=C/C(OC(C)=O)C12` (configuration not stated): the T/C runs as follows: under setting [11], 105 % of control; under setting [14], 91 % of control.

Turning to `O=CNc1ccc(I)cc1`, the T/C was 106 % of control under setting [11]; 98 % of control under setting [14]; 101 % of control (endpoint: mean survival time, dose: 400.0 mg/kg/injection, schedule: Q04DX003 (ip), vehicle: saline with Tween-80).
